Experimental data: US9242984B2, “Pyrazolyl derivatives as Syk inhibitors” (Merck Sharp & Dohme Corp., priority 2012, dated 2016)

Molecular target: T1, recombinant human Syk (GST-hSyk fusion protein) (Homo sapiens, UniProt P43405)
T1 construct: purchased Carna Biosciences 08-176
Assay: Homogeneous Time-Resolved Fluorescence (HTRF) assay for the recombinant human Syk enzyme
Format: biochemical
Conditions: 10-dose titration, 25 μM ATP; read-out: rhSYK IC50
Procedure, shortened: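 GST-hSyk (5 pM) preincubated 10 min with compound (0.1% DMSO) in 15 mM Tris-HCl pH 7.5, 2 mM DTT; reaction started with 250 nM biotinylated peptide, 5 mM Mg, 25 μM ATP, 45 min, room temperature. EDTA quench, Eu-anti-phosphotyrosine/SA-APC HTRF read after 30 min; IC50 from 10-dose titration (10 μM–0.508 nM), four-parameter fit.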

| IC50 | Molecule |
| --- | --- |
| 6.2 nM | Cc1cc(Nc2nccc(C3CC3)n2)cc(-c2cnn(C[C@@H](O)C(=O)O)c2)c1 [Example 11.1, (R)-3-(4-(3-(4-cyclopropylpyrimidin-2-ylamino)-5-methylphenyl)-1H-pyrazol-1-yl)-2-hydroxypropanoic acid] |
| 7.4 nM | Cc1cc(Nc2nccc(C(F)F)n2)cc(-c2cnn(C3CCCC(C)(O)C3(C)O)c2)c1 (stereo not drawn) [Example 22.12, 3-[4-(3-{[4-(difluoromethyl)pyrimidin-2-yl]amino}-5-methylphenyl)-1H-pyrazol-1-yl]-1,2-dimethylcyclohexane-1,2-diol] |
| 2.6 nM | Cc1cc(Nc2nccc(C(F)F)n2)cc(-c2cnn(C3CCC(C)(C)C(O)C3O)c2)c1 (stereo not drawn) [Example 22.7, 6-[4-(3-{[4-(difluoromethyl)pyrimidin-2-yl]amino}-5-methylphenyl)-1H-pyrazol-1-yl]-3,3-dimethylcyclohexane-1,2-diol] |
| 3.6 nM | Cc1cc(Nc2nccc(C(F)F)n2)cc(-c2cnn(C3CCC(O)C3(C)O)c2)c1 (stereo not drawn) [Example 22.13, 5-[4-(3-{[4-(difluoromethyl)pyrimidin-2-yl]amino}-5-methylphenyl)-1H-pyrazol-1-yl]-1-methylcyclopentane-1,2-diol] |

Same assay, conditions: IC50 class; 10-dose titration, 25 μM ATP; read-out: rhSYK Activity

| IC50 | Molecule |
| --- | --- |
| ≤ 100 nM | Cc1cc(Nc2nccc(C(F)F)n2)cc(-c2cnn([C@H]3CC[C@H](C(=O)O)CC3)c2)c1 [Example 2.61, trans-4-[4-(3-{[4-(difluoromethyl)pyrimidin-2-yl]amino}-5-methylphenyl)-1H-pyrazol-1-yl]cyclohexanecarboxylic acid] |
| ≤ 100 nM | Cc1cc(Nc2nccc(C(F)(F)F)n2)cc(-c2cnn(CC(O)C(F)(F)F)c2)c1 (single isomer, unassigned) [Example 3.44, 1,1,1-trifluoro-3-[4-(3-methyl-5-{[4-(trifluoromethyl)pyrimidin-2-yl]amino}phenyl)-1H-pyrazol-1-yl]propan-2-ol] |
| ≤ 100 nM | Cc1cc(Nc2nccc(C3CC3)n2)cc(-c2cnn(C[C@@H](O)C(=O)O)c2)c1 [Example 11.1, (R)-3-(4-(3-(4-cyclopropylpyrimidin-2-ylamino)-5-methylphenyl)-1H-pyrazol-1-yl)-2-hydroxypropanoic acid] |
| 100 to 1000 nM | Cc1cc(Nc2cc(C)c(Cl)cn2)nc(-c2cnn(CCC(=O)O)c2)c1 [Example 1.27, 3-(4-{6-[(5-chloro-4-methylpyridin-2-yl)amino]-4-methylpyridin-2-yl}-1H-pyrazol-1-yl)propanoic acid] |
| ≤ 100 nM | Cc1cc(Nc2nccc(C(C)C)n2)cc(-c2cnn(CCC(N)=O)c2)c1 [Example 2.8, 3-[4-(3-methyl-5-{[4-(1-methylethyl)-pyrimidin-2-yl]-amino}phenyl)-1H-pyrazol-1-yl]propanamide] |
| ≤ 100 nM | Cc1cc(Nc2nccc(C(F)F)n2)cc(-c2cnn(C3CCCC(C)(O)C3(C)O)c2)c1 (stereo not drawn) [Example 22.12, 3-[4-(3-{[4-(difluoromethyl)pyrimidin-2-yl]amino}-5-methylphenyl)-1H-pyrazol-1-yl]-1,2-dimethylcyclohexane-1,2-diol] |
| ≤ 100 nM | Cc1cc(Nc2nccc(C(F)(F)F)n2)cc(-c2cnn(C(C)C(N)=O)c2)c1 (stereo not drawn) [Example 8.20, 2-[4-(3-methyl-5-{[4-(trifluorometh-yl)pyrimidin-2-yl]amino}phenyl)-1H-pyrazol-1-yl]propanamide] |
| ≤ 100 nM | Cc1cc(Nc2nccc(OCCO)n2)cc(-c2cnn(C3CCC(C(N)=O)CC3)c2)c1 (stereo not drawn) [Example 8.17, 4-[4-(3-{[4-(2-hydroxy-ethoxy)pyrimidin-2-yl]amino}-5-methylphenyl)-1H-pyrazol-1-yl]-cyclo-hexanecarboxamide] |
| ≤ 100 nM | Cc1cc(Nc2nccc(C(F)F)n2)cc(-c2cnn(C3CCC(C)(C)C(O)C3O)c2)c1 (stereo not drawn) [Example 22.7, 6-[4-(3-{[4-(difluoromethyl)pyrimidin-2-yl]amino}-5-methylphenyl)-1H-pyrazol-1-yl]-3,3-dimethylcyclohexane-1,2-diol] |
| ≤ 100 nM | Cc1cc(Nc2nccc(C(F)(F)F)n2)cc(-c2cnn(C(C)C(C)(O)CO)c2)c1 (single isomer, unassigned) [Example 21.9, 2-methyl-3-[4-(3-methyl-5-{[4-(trifluoromethyl)pyrimidin-2-yl]amino}phenyl)-1H-pyrazol-1-yl]butane-1,2-diol] |
| 100 to 1000 nM | Cc1cc(Nc2nccc(C(F)(F)F)n2)cc(-n2cc(C3(O)CCC(C(=O)O)C(C)(C)C3)cn2)c1 (stereo not drawn) [Example 19.15, 4-hydroxy-2,2-dimethyl-4-[1-(3-methyl-5-{[4-(trifluoromethyl)pyrimidin-2-yl]amino}phenyl)-1H-pyrazol-4-yl]cyclohexanecarboxylic acid] |
| ≤ 100 nM | Cc1cc(Nc2nccc(C(F)F)n2)cc(-c2cnn(CC(O)CF)c2)c1 (stereo not drawn) [Example 5.19, 1-[4-(3-{[4-(difluoromethyl)pyrimidin-2-yl]amino}-5-methylphenyl)-1H-pyrazol-1-yl]-3-fluoropropan-2-ol] |
| ≤ 100 nM | Cc1cc(Nc2nccc(OCCO)n2)cc(-c2cnn(C[C@H](O)C(N)=O)c2)c1 [Example 6.2, (2S)-2-hydroxy-3-[4-(3-{[4-(2-hydroxyethoxy)pyrimidin-2-yl]amino}-5-methylphenyl)-1H-pyrazol-1-yl]propanamide] |
| 100 to 1000 nM | Cc1ccnc(Nc2cccc(-c3cnn(CC4CNC(=O)O4)c3)c2)n1 (stereo not drawn) [Example 2.16, 5-[(4-{3-[(4-methylpyrimidin-2-yl)amino]phenyl}-1H-pyrazol-1-yl)methyl]-1,3-oxazolidin-2-one] |
| ≤ 100 nM | Cc1cc(Nc2nccc(C(F)F)n2)cc(-c2cnn(CC(O)CC(C)O)c2)c1 (stereo not drawn) [Example 5.29, 1,3,5-trideoxy-1-[4-(3-{[4-(difluoromethyl)pyrimidin-2-yl]amino}-5-methylphenyl)-1H-pyrazol-1-yl]pentitol] |
| ≤ 100 nM | Cc1cc(Nc2ncc(F)c(C(F)F)n2)cc(-c2cnn(CC3OC(=O)NC3C)c2)c1 (single isomer, unassigned) [Example 23.21, 5-{[4-(3-{[4-(difluoromethyl)-5-fluoropyrimidin-2-yl]amino}-5-methylphenyl)-1H-pyrazol-1-yl]methyl}-4-methyl-1,3-oxazolidin-2-one] |

| IC50 | Molecule |
| --- | --- |
| ≤ 100 nM | Cc1cc(Nc2nccc(C(F)(F)F)n2)cc(-c2cnn(CC(O)C(F)(F)F)c2)c1 (racemic) [Example 3.43, 1,1,1-trifluoro-3-[4-(3-methyl-5-{[4-(trifluoromethyl)pyrimidin-2-yl]amino}phenyl)-1H-pyrazol-1-yl]propan-2-ol] |
| ≤ 100 nM | Cc1cc(Nc2nccc(C(F)(F)F)n2)cc(-c2cnn(CC3OC(=O)NC3C)c2)c1 (stereo not drawn) [Example 3.120, 4-methyl-5-{[4-(3-methyl-5-{[4-(trifluoromethyl)pyrimidin-2-yl]amino}phenyl)-1H-pyrazol-1-yl]methyl}-1,3-oxazolidin-2-one] |
| ≤ 100 nM | Cc1cc(Nc2nccc(C)n2)cc(-c2cnn(CC3OC(=O)NC3(C)C)c2)c1 (stereo not drawn) [Example 3.106, 4,4-dimethyl-5-[(4-{3-methyl-5-[(4-methylpyrimidin-2-yl)amino]phenyl}-1H-pyrazol-1-yl)methyl]-1,3-oxazolidin-2-one] |
| ≤ 100 nM | Cc1cc(Nc2nccc(C(F)F)n2)cc(-c2cnn(CC3OC(=O)NC3C)c2)c1 (single isomer, unassigned) [Example 23.9, 5-{[4-(3-{[4-(difluoromethyl)pyrimidin-2-yl]amino}-5-methylphenyl)-1H-pyrazol-1-yl]methyl}-4-methyl-1,3-oxazolidin-2-one] |
| ≤ 100 nM | Cc1cc(Nc2nccc(C(F)F)n2)cc(-c2cnn(C3CCC(O)C3(C)O)c2)c1 (stereo not drawn) [Example 22.13, 5-[4-(3-{[4-(difluoromethyl)pyrimidin-2-yl]amino}-5-methylphenyl)-1H-pyrazol-1-yl]-1-methylcyclopentane-1,2-diol] |
| 100 to 1000 nM | Cc1cc(Nc2nccc(C(F)(F)F)n2)cc(-c2cnn3cccnc23)c1 [Example 2.37, N-(3-methyl-5-pyrazolo[1,5-a]pyrimidin-3-ylphenyl)-4-(trifluoromethyl)pyrimidin-2-amine] |
| ≤ 100 nM | Cc1cc(Nc2nccc(C)n2)cc(-c2cnn(CC3OC(=O)NC3C(C)C)c2)c1 (single isomer, unassigned) [Example 23.15, 4-(1-methylethyl)-5-[(4-{3-methyl-5-[(4-methylpyrimidin-2-yl)amino]phenyl}-1H-pyrazol-1-yl)methyl]-1,3-oxazolidin-2-one] |
| ≤ 100 nM | COC(=O)[C@H](O)Cn1cc(-c2cc(C)cc(Nc3nccc(C(F)(F)F)n3)c2)cn1 [Example 5.3, methyl (2R)-2-hydroxy-3-[4-(3-methyl-5-{[4-(trifluoro-methyl)pyrimidin-2-yl]amino}phenyl)-1H-pyrazol-1-yl]propanoate] |
| 100 to 1000 nM | CCOC(=O)CCn1cc(-c2cccc(Nc3cc(C)ccn3)n2)cn1 [Example 1.23] |
| ≤ 100 nM | Cc1cc(Nc2nccc(C3CC3)n2)cc(-c2cnn(CC3CNC(=O)O3)c2)c1 (stereo not drawn) [Example 2.19, 5-[(4-{3-[(4-cyclopropylpyrimidin-2-yl)amino]-5-methylphenyl}-1H-pyrazol-1-yl)methyl]-1,3-oxazolidin-2-one] |
| ≤ 100 nM | COCCOC(=O)NCCn1cc(-c2cc(C)cc(Nc3nccc(C(F)F)n3)c2)cn1 [Example 27.3, 2-methoxyethyl {2-[4-(3-{[4-(difluoromethyl)pyrimidin-2-yl]amino}-5-methylphenyl)-1H-pyrazol-1-yl]ethyl}carbamate] |
| ≤ 100 nM | Cc1cc(Nc2nccc(C(F)F)n2)cc(-c2cnn(CCNC(=O)NCC3CCOCC3)c2)c1 [Example 27.17, 1-{2-[4-(3-{[4-(difluoromethyl)pyrimidin-2-yl]amino}-5-methylphenyl)-1H-pyrazol-1-yl]ethyl}-3-(tetrahydro-2H-pyran-4-ylmethyl)urea] |
| ≤ 100 nM | Cc1cc(Nc2nccc(C(F)F)n2)cc(-c2cnn(CC3(C)CNC(=O)O3)c2)c1 (stereo not drawn) [Example 3.123, 5-{[4-(3-{[4-(difluoromethyl)pyrimidin-2-yl]amino}-5-methylphenyl)-1H-pyrazol-1-yl]methyl}-5-methyl-1,3-oxazolidin-2-one] |
| ≤ 100 nM | 4-{[4-(4-methyl-6-{[4-(trifluoromethyl)pyridin-2-yl]amino}pyridin-2-yl)-1H-pyrazol-1-yl]-methyl}pyrrolidin-2-one [Example 1.38] |
| ≤ 100 nM | Cc1cc(Nc2nccc(C(F)(F)F)n2)cc(-c2cnn(CC(C)(O)C(N)=O)c2)c1 (single isomer, unassigned) [Example 8.14, 2-hydroxy-2-methyl-3-[4-(3-methyl-5-{[4-(trifluorometh-yl)pyrimidin-2-yl]amino}phenyl)-1H-pyrazol-1-yl]propanamide] |
| 100 to 1000 nM | Cc1ccnc(Nc2cccc(-n3cc(CCC(=O)O)cn3)n2)c1 [Example 18.2, 3-(1-{6-[(4-methylpyridin-2-yl)amino]pyridin-2-yl}-1H-pyrazol-4-yl)propanoic acid] |
